Measurements from article PMC6383986, “Fragment-Based Covalent Ligand Screening Enables Rapid Discovery of Inhibitors for the RBR E3 Ubiquitin Ligase HOIP” (Journal of the American Chemical Society, 2019).

Tested on: E1, UbcH5c, UbcH7, HOIL-1L, RNF144A, HHARI, TRIAD3A RBR domains, NEDD4L, E6AP, OTULIN, CYLD-1
Experiment: LC-MS-based enzyme counter screen
Assay type: binding
Details: 10-fold stoichiometric excess, 24 h incubation
Procedure: 0.1% formic acid in water. The samples were analyzed on a Q Exactive MS (Thermo Fisher) coupled to an Easy-nLC chromatographic system (Thermo Fisher) with a nano ESI source (Thermo Fisher). Each sample (2 µL) was injected and trapped on a C18 Acclaim pepMap 100 enrichment column (75 µm id × 2 cm, 3 µm nanoviper, Thermo Fisher). The samples were transferred to a C18 Acclaim PepMap RSLC analytical column (75 µm id × 15 cm, 2 µm, Thermo Fisher) at 300 nL/min. Mobile phase A (0.1% Formic acid in water, v/v); mobile phase B (0.1% […]
min (70-95% B), 56-61 min (95% B). The nanospray ionisation source was operated in the positive mode with spray voltage set at 2 kV, and heated capillary at 250 °C. The Q Exactive was operated in the data dependent mode and the top 15 most intense ions were subjected to HCD fragmentation with normalised collision energy set at 26%. The MS1 scans were performed at a resolution of 70 000 from 400-1600 m/z, automatic gain control (AGC) value 3 e6, maximum injection time 100 ms. […]
Compounds (1) and (5) were screened against E1, the E2s UbcH5c and UbcH7, the RBR domains of the E3 ligases HOIP, HOIL-1L, RNF144A, HHARI and TRIAD3A, the HECT E3 ligases NEDD4L and E6AP, and the DUBs OTULIN and CYLD-1. […] The samples were analyzed after 0.5 and 24 h incubation. […]

- labeling of all other proteins screened: < 40%
SMILES: COC(=O)/C=C/CNC(=O)c1cc2c([nH]c1=O)CCC2 [Compound 5]
